Experimental data as given in patent publication US10597696B2, “Detection of Niemann-Pick disease comprising detection of lysozyme and cathepsins” (UNIVERSITY OF NOTRE DAME DU LAC, priority 2013, dated 2020).

Columns and labels:
NPC patients [1] = test: Plasma lysozyme level in Miglustat-treated NPC patients; type: in vivo, human; conditions: Miglustat-treated NPC samples vs untreated NPC and healthy controls
From the text: (§1) A major hurdle is that inflammatory products of cerebral disease are not easily detected in blood. Inflammation in multiple organs and heterogeneity in disease present additional challenges in distinguishing the extent to which a blood based marker reflects disease in brain or other afflicted organs. We utilized murine models of the monogenetic disorder Niemann Pick Type C (NPC) that present aggressive forms of cerebral and liver inflammatory disease to identify secretory biomarkers for neuroinflammation. […] We utilized 2-hydroxypropyl-beta-cyclodextrin (HPβCD; an emerging therapeutic) administered intraperitoneally in mice, which abrogates inflammatory pathology in the liver but has limited effect on the brain. By analyzing the corresponding effects on inflammatory plasma proteins, we identified cathepsin S as a lead indicator of liver disease. In contrast lysozyme was a marker of both brain and liver disease. The study was extended on human samples. The level of lysozyme and cathepsin S were determined in the plasma samples from healthy individuals (age and gender matched), untreated NPC patients and Miglustat (also known as Zavesca) treated NPC patients. […] The plasma concentration of these two markers in untreated and Miglustat treated NPC samples when analyzed together yielded a composite score to assess extent of neurodegeneration. […]

NPC patients [2] = test: Plasma cathepsin S level in Miglustat-treated NPC patients; type: in vivo, human; conditions: patients treated with Miglustat vs untreated NPC patients
From the text: as §1

Q: How did the plasma lysozyme level (NPC patients [1]) turn out when `CCCCN1C[C@H](O)[C@@H](O)[C@H](O)[C@H]1CO` [Miglustat] was run?
A: reduced compared to untreated NPC patients and were equivalent to healthy controls

Q: And the “plasma cathepsin S” value (NPC patients [2])?
A: further elevated
